One test has as its target T1, plasmin (Homo sapiens, UniProt P00747).
T1 construct: To determine the enzymatic activity of trypsin (500 mU/ml) and plasmin (3.2 nmol/l)
The test can be described thus: Determination of the selectivity: plasmin inhibition (chromogenic substrate). Type of test: biochemical. The note with it: plasmin 3.2 nmol/l, Chromozym Plasmin, 37° C., pH 8.0. The protocol: (§1) To assess selective FXa inhibition, the test substances are examined for their inhibition of other human serine proteases such as trypsin and plasmin. To determine the enzymatic activity of trypsin (500 mU/ml) and plasmin (3.2 nmol/l), these enzymes are dissolved in Tris buffer (100 mmol/l, 20 mmol/l CaCl2, pH=8.0) and incubated with test substance or solvent for 10 minutes. The enzymatic reaction is then started by adding the corresponding specific chromogenic substrates (Chromozym Trypsin® and Chromozym Plasmin®; from Roche Diagnostics) and the extinction at 405 nm is determined after 20 minutes. All determinations are carried out at 37° C.

The target of a further test is T2, human factor Xa (FXa) (Homo sapiens, UniProt P00742).
T2 construct: factor Xa, which is formed from the proenzyme factor X
T2 sequence (P00742 235-488 limits assumed): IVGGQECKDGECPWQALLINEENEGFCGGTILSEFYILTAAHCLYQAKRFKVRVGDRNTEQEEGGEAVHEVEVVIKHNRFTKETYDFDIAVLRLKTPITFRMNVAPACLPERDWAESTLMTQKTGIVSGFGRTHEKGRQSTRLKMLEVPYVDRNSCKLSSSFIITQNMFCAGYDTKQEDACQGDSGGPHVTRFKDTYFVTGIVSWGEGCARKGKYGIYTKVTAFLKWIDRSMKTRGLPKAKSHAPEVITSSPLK
T2 sequence (P00742 41-179 partner limits assumed): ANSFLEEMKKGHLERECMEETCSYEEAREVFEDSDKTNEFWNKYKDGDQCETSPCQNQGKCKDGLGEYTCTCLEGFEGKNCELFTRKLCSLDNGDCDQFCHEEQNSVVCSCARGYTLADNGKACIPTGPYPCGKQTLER
The test can be described thus: Determination of the factor Xa inhibition (chromogenic substrate). The format is biochemical. To be noted: human FXa 0.5 nmol/l, Pefachrome FXa 150 μmol/l, 25° C., pH 8.3. The protocol:
The enzymatic inhibition of human factor Xa (FXa) is measured using the conversion of a chromogenic substrate specific for FXa. Factor Xa cleaves p-nitroaniline from the chromogenic substrate. The determinations are carried out in microtitre plates as follows:
The test substances, in various concentrations, are dissolved in DMSO and incubated for 10 minutes at 25° C. with human FXa (0.5 nmol/l dissolved in 50 mmol/l of Tris buffer [C,C,C-tris(hydroxymethyl)aminomethane], 150 mmol/l of NaCl, 0.1% BSA [bovine serum albumin], pH=8.3). Pure DMSO is used as control. The chromogenic substrate (150 μmol/l Pefachrome® FXa from Pentapharm) is then added. After an incubation time of 20 minutes at 25° C., the extinction at 405 nm is determined.

The subject of a further test is trypsin. The test can be described thus: Determination of the selectivity: trypsin inhibition (chromogenic substrate). Type of test: biochemical, human. To be noted: trypsin 500 mU/ml, Chromozym Trypsin, 37° C., pH 8.0. The protocol: as §1

As usually defined, the IC50 is the concentration that inhibits the measured activity by half. A high value points to a need for much substance.

SMILES strings stand for the structures.

T1 sequence (P00747 581-810 limits assumed): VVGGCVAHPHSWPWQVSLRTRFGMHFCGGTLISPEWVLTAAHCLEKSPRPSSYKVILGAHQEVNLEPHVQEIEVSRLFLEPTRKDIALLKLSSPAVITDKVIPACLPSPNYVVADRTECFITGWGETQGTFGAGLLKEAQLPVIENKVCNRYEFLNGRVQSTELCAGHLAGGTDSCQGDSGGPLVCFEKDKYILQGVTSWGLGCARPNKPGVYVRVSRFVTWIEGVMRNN
T1 sequence (P00747 97-580 partner limits assumed): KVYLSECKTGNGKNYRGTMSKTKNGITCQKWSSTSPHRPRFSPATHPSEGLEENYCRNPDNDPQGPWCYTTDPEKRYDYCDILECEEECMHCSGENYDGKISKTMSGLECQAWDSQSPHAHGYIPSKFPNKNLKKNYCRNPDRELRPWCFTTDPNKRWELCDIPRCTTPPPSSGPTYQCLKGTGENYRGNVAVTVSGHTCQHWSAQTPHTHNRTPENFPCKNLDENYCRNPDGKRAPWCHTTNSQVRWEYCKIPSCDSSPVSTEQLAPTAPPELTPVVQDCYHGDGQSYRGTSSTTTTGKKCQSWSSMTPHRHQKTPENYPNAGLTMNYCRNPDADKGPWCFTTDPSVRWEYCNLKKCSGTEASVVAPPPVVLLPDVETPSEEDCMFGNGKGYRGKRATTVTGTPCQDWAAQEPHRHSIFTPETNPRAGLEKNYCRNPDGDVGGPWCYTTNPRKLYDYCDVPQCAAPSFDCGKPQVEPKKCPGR

In the case of `N=C1O[C@@H](CNC(=O)c2ccc(Cl)s2)CN1c1ccc(N2CCOCC2=O)cc1` [Example 1, 5-Chloro-N-({(5S)-2-imino-3-[4-(3-oxomorpholin-4-yl)phenyl]-1,3-oxazolidin-5-yl}methyl)-thiophene-2-carboxamide], the half-maximal inhibitory concentration (IC50) is above 10 µM at plasmin, 0.0054 µM against human factor Xa (FXa) and above 10 µM in the test on trypsin.

The values are drawn from patent US20100048548A1, “IMINO-OXAZOLIDINES AND USE THEREOF” (Bayer HealthCare AG, priority 2005, published 2010).
